Source: patent publication US20240122212A1 (SUNTORY HOLDINGS LIMITED, priority 2020, published 2024)

Tests used:
[1] = Degree of sweetness relative to sucrose; conditions: for degree of sweetness, median value: median of the range, sucrose = 1; for degree of sweetness at sweetness intensity of 0.3, times as much as that of sucrose: sweetness intensity 0.3; for degree of sweetness at sweetness intensity of 4.3, times as much as that of sucrose: sweetness intensity 4.3
Text: The “sweetness intensity” means an intensity of sweetness of a substance. […] A numerical value obtained by multiplying the degree of sweetness by a concentration Brix value of glucose is the sweetness intensity of glucose in terms of sucrose. Thus, when a concentration of glucose in terms of sucrose is Brix 1.5, the sweetness intensity of glucose is 0.65×1.5=0.975. The sweetness intensity of a sweetener in terms of sucrose can be calculated from a degree of sweetness shown in the following table or a value of a known degree of sweetness.
For example, when the sweetness intensity of sucrose per unit concentration Brix 1 is defined as a degree of sweetness of 1, a degree of sweetness of rebaudioside D is about 200 to 250 (median value 225), a degree of sweetness of rebaudioside M is about 200 to 260 (median value 230), a degree of sweetness of rebaudioside B is about 325, a degree of sweetness of rebaudioside A is about 200 to 300 (median value 250), a degree of sweetness of rebaudioside N is about 200 to 250 (median value 225), a degree of sweetness of rebaudioside O is about 200 to 250 (median value 225), a degree of sweetness of rebaudioside E is about 70 to 80 (median value 75), a degree of sweetness of a Luo han guo extract (containing 40% of Mog V) is about 110 to 150 (median value 130), a degree of sweetness of mogroside V is about 240 to 300 (median value 270), and a degree of sweetness of thaumatin is about 2,000, and a degree of sweetness of brazzein is about 500 to 2,000 (median value 1,250). The numerical value obtained by multiplying these degrees of sweetness by a concentration (w/v % (considered to be the same as w/w % in the case of a beverage)) of the high-intensity sweetener in a fruit juice beverage is a sweetness intensity of the high-intensity sweetener. The relative ratio in degrees of sweetness of various sweeteners to the degree of sweetness of 1 of sucrose can be determined from a known sugar sweetness conversion table, and the like. In the present description, when a degree of sweetness is shown in a numerical value range, the median value may be used. However, a sweetener having different values in a degree of sweetness by literatures, a relative ratio in a degree of sweetness to the degree of sweetness of 1 of sucrose can be defined by a sensory test. Examples of such a sensory test include a method in which samples were prepared by adding sucrose having a sweetness intensity of Brix 3.0 to 5.0 in 0.5 increments to pure water, and of which a sucrose-added sample having a sweetness intensity equal to an aqueous solution of a sweetener in a predetermined concentration is selected.
Additionally, for a sweetener with a variable degree of sweetness as a sweetness intensity increases, degrees of sweetness in different concentrations are actually measured and plotted whereby a degree of sweetness in a predetermined concentration may be calculated from the obtained approximate curve.

[2] = Basic taste quality sensory evaluation by trained panelists, spitting test, against 6% sucrose control (Example 1); assay type: in vivo, human; conditions: scale −3 to 3, 0 = no difference from 6% sucrose control; D-allulose 8.57 w/v %, D-arabinose 10 w/v % in pure water; 4 panelists
Experimental: In each evaluation item, the rating on a scale of −3 point to 3 point was performed, with the case where there is no difference from the control solution being 0. Quicker in sweetness onset, higher sweetness intensity, shorter lingering sweet aftertaste, lower bitterness intensity, and shorter lingering bitter aftertaste compared to the control were rated near 3 points. Slower in sweetness onset, lower sweetness intensity, longer lingering sweet aftertaste, higher bitterness intensity, and longer lingering bitter aftertaste compared to the control were rated near −3 points. That is, the closer to 0 point, the closer to the control. The evaluation was carried out by those (4 persons) who received sensory trainings as panelists by spitting test. The amount of a sweet substance contained in each sample solution was adjusted to be equal to the control solution on the calculation. […] The energy (kcal/100 ml) was calculated from the amount of the sweetener added.

[3] = value used to design the sample solutions

Compound | degree of sweetness, median value [1] | degree of sweetness at sweetness intensity of 0.3, times as much as that of sucrose [1, 3] [times] | degree of sweetness at sweetness intensity of 4.3, times as much as that of sucrose [1, 3] [times] | other results
C=C1C[C@@]23CC[C@H]4[C@@](C)(CCC[C@@]4(C)C(=O)O[C@@H]4O[C@H](CO)[C@@H](O)[C@H](O)[C@H]4O)[C@@H]2CC[C@]1(O[C@@H]1O[C@H](CO)[C@@H](O)[C@H](O[C@@H]2O[C@H](CO)[C@@H](O)[C@H](O)[C@H]2O)[C@H]1O[C@@H]1O[C@H](CO)[C@@H](O)[C@H](O)[C@H]1O)C3 [rebaudioside A] | 250 | 100 | 190.5 | –
O=C(CO)[C@H](O)[C@H](O)[C@H](O)CO [D-Allulose] | – | – | – | Bitterness intensity [2]: −1 point; Lingering bitter aftertaste [2]: −0.625 point; Lingering sweet aftertaste [2]: 0.125 point; Quickness in sweetness onset [2]: 0.125 point; Sweetness intensity [2]: −0.125 point; degree of sweetness, times as much as that of sucrose [1, 3]: 0.7 times
C=C1C[C@@]23CC[C@H]4[C@@](C)(CCC[C@@]4(C)C(=O)O[C@@H]4O[C@H](CO)[C@@H](O)[C@H](O[C@@H]5O[C@H](CO)[C@@H](O)[C@H](O)[C@H]5O)[C@H]4O[C@@H]4O[C@@H](C)[C@H](O)[C@@H](O)[C@H]4O)[C@@H]2CC[C@]1(O[C@@H]1O[C@H](CO)[C@@H](O)[C@H](O[C@@H]2O[C@H](CO)[C@@H](O)[C@H](O)[C@H]2O)[C@H]1O[C@@H]1O[C@H](CO)[C@@H](O)[C@H](O)[C@H]1O)C3 [rebaudioside N] | 225 | – | – | –
O=C[C@H](O)[C@@H](O)[C@H](O)[C@H](O)CO [Glucose] | 0.65 | – | – | –
C=C1C[C@@]23CC[C@H]4[C@@](C)(CCC[C@@]4(C)C(=O)O[C@@H]4O[C@H](CO)[C@@H](O)[C@H](O[C@@H]5O[C@H](CO)[C@@H](O)[C@H](O)[C@H]5O)[C@H]4O[C@@H]4O[C@@H](C)[C@H](O)[C@@H](O[C@@H]5O[C@H](CO)[C@@H](O)[C@H](O)[C@H]5O)[C@H]4O)[C@@H]2CC[C@]1(O[C@@H]1O[C@H](CO)[C@@H](O)[C@H](O[C@@H]2O[C@H](CO)[C@@H](O)[C@H](O)[C@H]2O)[C@H]1O[C@@H]1O[C@H](CO)[C@@H](O)[C@H](O)[C@H]1O)C3 [rebaudioside O] | 225 | – | – | –
C=C1C[C@@]23CC[C@H]4[C@@](C)(CCC[C@@]4(C)C(=O)O[C@@H]4O[C@H](CO)[C@@H](O)[C@H](O)[C@H]4O[C@@H]4O[C@H](CO)[C@@H](O)[C@H](O)[C@H]4O)[C@@H]2CC[C@]1(O[C@@H]1O[C@H](CO)[C@@H](O)[C@H](O[C@@H]2O[C@H](CO)[C@@H](O)[C@H](O)[C@H]2O)[C@H]1O[C@@H]1O[C@H](CO)[C@@H](O)[C@H](O)[C@H]1O)C3 [rebaudioside D] | 225 | 100 | 190.5 | –
C=C1C[C@@]23CC[C@H]4[C@@](C)(CCC[C@@]4(C)C(=O)O[C@@H]4O[C@H](CO)[C@@H](O)[C@H](O)[C@H]4O[C@@H]4O[C@H](CO)[C@@H](O)[C@H](O)[C@H]4O)[C@@H]2CC[C@]1(O[C@@H]1O[C@H](CO)[C@@H](O)[C@H](O)[C@H]1O[C@@H]1O[C@H](CO)[C@@H](O)[C@H](O)[C@H]1O)C3 [rebaudioside E] | 75 | – | – | –
C[C@H](CC[C@@H](O[C@@H]1O[C@H](CO[C@@H]2O[C@H](CO)[C@@H](O)[C@H](O)[C@H]2O)[C@@H](O)[C@H](O)[C@H]1O[C@@H]1O[C@H](CO)[C@@H](O)[C@H](O)[C@H]1O)C(C)(C)O)[C@H]1CC[C@@]2(C)[C@@H]3CC=C4[C@@H](CC[C@H](O[C@@H]5O[C@H](CO[C@@H]6O[C@H](CO)[C@@H](O)[C@H](O)[C@H]6O)[C@@H](O)[C@H](O)[C@H]5O)C4(C)C)[C@]3(C)[C@H](O)C[C@]12C [mogroside V] | 270 | – | – | –
C=C1C[C@@]23CC[C@H]4[C@@](C)(CCC[C@@]4(C)C(=O)O[C@@H]4O[C@H](CO)[C@@H](O)[C@H](O[C@@H]5O[C@H](CO)[C@@H](O)[C@H](O)[C@H]5O)[C@H]4O[C@@H]4O[C@H](CO)[C@@H](O)[C@H](O)[C@H]4O)[C@@H]2CC[C@]1(O[C@@H]1O[C@H](CO)[C@@H](O)[C@H](O[C@@H]2O[C@H](CO)[C@@H](O)[C@H](O)[C@H]2O)[C@H]1O[C@@H]1O[C@H](CO)[C@@H](O)[C@H](O)[C@H]1O)C3 [rebaudioside M] | 230 | 100 | 190.5 | –
brazzein: sweet protein of Pentadiplandra brazzeana (QDKCKKVYENYPVSKCQLANQCNYDCKLDKHARSGECFYDEKRNLQCICDYCEY; UniProt P56552 1-54, looked up) | 1,250 | – | – | –
